# Measured values: patent publication US20240400572A1, “COMPOUNDS AND METHODS FOR TREATING CANCERS THAT ARE MGMT DEFICIENT REGARDLESS OF MMR STATUS” (Yale University, priority 2021, published 2024)
# What was measured:
# [1] = tested on: LN229 MGMT−/MMR− intracranial tumors; test: Anti-cancer activity in mice having tumors formed from LN-229 human brain glioblastoma cells; type: in vivo, mouse; settings: 25 mg/kg PO for 5 days; compared with vehicle, TMZ, or KL50
# Protocol: Mice bearing tumors formed from LN-229 human brain glioblastoma cells were prepared as follows: LN229 MGMT−/MMR− cells stably expressing firefly luciferase (lentivirus-plasmids from Cellomics Technology; PLV-10003) were injected intracranially into mice using a stereotactic injector. For this procedure, 1.5 million LN229 MGMT−/MMR− cells in 5 μl PBS were injected into the brain of the mice subjects, and then the mice were imaged weekly using the IVIS Spectrum In Vivo Imaging System (PerkinElmer) according to the manufacturer's protocol. Images were taken on a weekly basis and acquired 10 min post intraperitoneal injection with d-luciferin (150 mg/kg of animal mass). Tumors were allowed to grow to an average of 1.0×10^8 RLU before randomization of the mice.
# Treatments using study compounds were administered PO (oral gavage), with 10% cyclodextrin vehicle control or study compound, according to the indicated treatment regimen. Animals were observed daily, with weekly tumor imaging and body weight measurements. Quantification of BLI flux (photons/sec) was made through the identification of a region of interest (ROI) for each tumor.
# Study compounds were administered to mice at a dose of 25 mg/kg PO for 5 days; thereafter no further study compound was administered to the mice.
# Statistical analysis of data was performed using GraphPad Prism software. Data was presented as mean±SEM. […]
# [2] = tested on: linearized pUC19 plasmid DNA; test: Melting temperature assay; type: biochemical; settings: 100 or 500 μM for 3 h
# Protocol: Melting Temperature Assay. Linearized pUC19 DNA (750 ng), prepared as described above, was incubated with the indicated concentration of either MMS or KL-50 (4a) adjusted in a final volume of 18 μL in 100 mM Tris buffer (pH 7.4) for 3 h. Drug stock concentrations were made in DMSO such that each reaction contained a fixed 5% DMSO concentration. Afterwards, 1 μL each of 20× SYBR Green dye (Invitrogen) and 20× ROX reference dye (Invitrogen) was added and melting temperature analysis was run on a StepOnePlus RT PCR System (Applied Biosciences) to generate melting temperature curves.
# [3] = tested on: PD20 cells, FANCD2−/− or +FANCD2; test: Short-term cell viability assay in FANCD2 model; type: cell-based, human; settings: PD20 FANCD2−/− versus +FANCD2
# Protocol: FIGS. Z4A-Z4I. KL-50 (4a) activates DNA damage response pathways and cycle arrest in MGMT− cells, independent of MMR, and induces sensitivity in cells deficient in ICL or HR repair. (FIGS. Z4A, Z4B, and Z4C) Phospho-SER139-H2AX (γH2AX) (A), 53BP1 (FIG. Z4B), and phospo-SER33-RPA2 (pRPA) (FIG. Z4C) foci formation quantified by % cells with 10 foci in LN229 MGMT+/−, MMR+/− cells treated with 0.1% DMSO control, 20 μM KL-50 (4a), or 20 μM TMZ (1a) for 48 h. Columns, mean; error bars, SD; n≥5 technical replicates. Additional time course data is presented in FIG. ZS6B to D. (FIG. Z4D) Representative foci images of data in (FIG. Z4A) to (FIG. Z4C). (FIG. Z4E) Percentage of cells in G1, S, and G2 cell cycle phases after treatment as in (A) to (C), measured using integrated nuclear (Hoechst) staining intensity. Columns, mean; error bars, SD; n=3 independent analyses. (FIG. Z4F) Change in percent cells with 1 micronuclei from baseline (DMSO control) after treatment as in (FIG. Z4A) to (FIG. Z4C). Columns, mean; error bars, SD; […] technical replicates; **** p<0.0001; ns, not significant. Additional validation is presented in FIG. ZS9, A and B. (FIG. Z4G) Short-term viability assay curves for KL-50 (4a) in PD20 cells, deficient in FANCD2 (FANCD2−/−) or complemented with FANCD2 (+FANCD2). (FIG. Z4H) Short-term viability assay curves for KL-50 (4a) in PEO4 (BRCA2+) and PEO1 (BRCA2−/−) cells pre-treated with 0.01% DMSO control or 10 μM O^6BG (+O^6BG) for 1 h prior to KL-50 (4a) addition. (FIG. Z4I) Short-term viability assay curves for KL-50 (4a) in DLD1 BRCA2+/− and BRCA2−/− cells pre-treated with 0.01% DMSO control or 10 μM O^6BG (+O^6BG) for 1 h prior to KL-50 (4a) addition. For (FIG. Z4G), (FIG. Z4H), and (FIG. Z4I), points, mean; error bars, SD; n=3 technical replicates.
# Short-term Cell Viability Assay. Cells were seeded in 96-well plates at 1000 or 2000 cells/well and allowed to adhere at 23° C. for 60 min and then incubated overnight at 37° C. […] Cells were imaged on a Cytation 3 imaging reader (BioTek) and quantified using CellProfiler software.
# [4] = Maximum tolerated dose study; type: in vivo
# Protocol: Healthy mice were treated with escalating doses of KL-50 (4a) (0, 25, 50, 100, and 200 mg/kg×1 dose), and monitored over time for changes in both weights and hematologic profiles. […] As the main dose limiting systemic toxicity of TMZ (1a) is myelosuppression, we measured complete blood counts for all mice on day 0 before treatment and subsequently on day 7 after drug administration.
SMILES,duration of survival (in words) [1],change in DNA melting temperature (in words) [2],sensitivity of FANCD2-deficient cells (in words) [3],mice observably ill warranting euthanasia ([4]; 200 mg/kg × 1 dose),"weight loss ([4]; 100 or 200 mg/kg × 1 dose, regressed to baseline at the end of one week)",toxicity in the remaining cohorts (in words) ([4]; cohorts below 200 mg/kg × 1 dose),"complete blood counts (in words) ([4]; day 7 after drug administration, all cohorts)","tolerability (in words) ([4]; healthy mice, 0, 25, 50, 100, and 200 mg/kg × 1 dose)"
"CNC(=O)c1ncn2c(=O)n(CCF)nnc12 [Compound I-1, 3-(2-fluoroethyl)-N-methyl-4-oxo-3H,4H-imidazo[4,3-d][1,2,3,5]tetrazine-8-carboxamide]",longer duration of survival,–,–,–,–,–,–,–
"NC(=O)c1ncn2c(=O)n(CCF)nnc12 [KL-50, 3-(2-fluoroethyl)-4-oxo-3H,4H-imidazo[4,3-d][1,2,3,5]tetrazine-8-carboxamide]",–,comparable changes in measured DNA melting temperature,hypersensitive,Two of three mice,greater than 10%,no evidence of toxicity,within normal physiological ranges,well-tolerated
